Results as given in patent publication US20080194585A1, “Fungicidal Pyrazine Derivatives” (priority 2005, published 2008).
Marks after values point to notes of the source that are not given here.

Columns and labels:
Septoria nodorum = test: Test H: wheat glum blotch, preventive spray on wheat seedlings
Method: (the causal agent of wheat glum blotch) and incubated in a saturated atmosphere at 20° C. for 48 h, and then moved to a growth chamber at 22° C. for 5 days, after which disease ratings were made.

[1] = tested on: Erysiphe graminis f. sp. tritici; test: Test L: wheat powdery mildew, preventive spray on wheat seedlings
Rhizoctonia oryzae = test: Test G: turf brown patch, preventive spray on creeping bent grass seedlings
Method: (the causal agent of turf brown patch) and incubated in a saturated atmosphere at 27° C. for 24 h, and then moved to a growth chamber at 27° C. for 5 days, after which disease ratings were made.

fusarium graminearium = test: Test I: wheat head scab, preventive spray on wheat seedlings; details: 200 ppm
Method: (the causal agent of wheat head scab) and incubated in a saturated atmosphere at 20° C. for 72 h, and then moved to a growth chamber at 22° C. for 5 days, after which disease ratings were made.

Pythium aphanidermatum = test: Test A: bluegrass pythium blight, preventive spray on bluegrass seedlings; details: 200 ppm
Botrytis cinerea = test: Test E: tomato botrytis, preventive spray on tomato seedlings
Plasmopara viticola = test: Test D: grape downy mildew, spray after inoculation of grape seedlings; format: in vivo; details: 200 ppm
Text: Upon removal, disease ratings were made. […] A dash (-) indicates no test results.

Sclerotinia sclerotiorum = test: Test C: cucumber white mold, preventive spray on cucumber seedlings; details: 200 ppm
[2] = tested on: Puccinia recondita f. sp. tritici; test: Test K: wheat leaf rust, preventive spray on wheat seedlings
[3] = tested on: Colletotrichum orbiculare; test: Test B: cucumber Colletotrichum anthracnose, preventive spray on cucumber seedlings
Phytophthora infestans = test: whole plant or invertebrate; format: in vivo; details: 200 ppm
Septoria tritici = test: Test J: wheat leaf blotch, preventive spray on wheat seedlings; format: in vivo
Text: A dash (-) indicates no test results.

Structure (SMILES) | Test H disease control rating (Septoria nodorum; 40 ppm (*)) | Test L disease control rating ([1]; 40 ppm (*)) | Test G disease control rating (Rhizoctonia oryzae; 40 ppm (*)) | Test I disease control rating (fusarium graminearium) [%] | Test A disease control rating (Pythium aphanidermatum) [%] | Test E disease control rating (Botrytis cinerea; 40 ppm (*)) | Test D disease control rating (Plasmopara viticola) [%] | Test C disease control rating (Sclerotinia sclerotiorum) [%] | Test K disease control rating ([2]; 40 ppm (*)) | Test B disease control rating ([3]; 40 ppm (*)) | Test F disease control rating (Phytophthora infestans) [%] | Test J disease control rating (Septoria tritici; 40 ppm (*)) | Test H disease control rating (Septoria nodorum; 200 ppm) [%] | Test L disease control rating ([1]; 200 ppm) [%] | Test G disease control rating (Rhizoctonia oryzae; 200 ppm) [%] | Test E disease control rating (Botrytis cinerea; 200 ppm) [%] | Test K disease control rating ([2]; 200 ppm) [%] | Test B disease control rating ([3]; 200 ppm) [%] | Test J disease control rating (Septoria tritici; 200 ppm) [%]
CCC(C)Cn1c(-c2c(F)cccc2F)c(Cl)nc(-n2ccc(C#N)n2)c1=O (stereo not drawn) [compound 81] | 0* % | 0* % | 31* % | 0 | 0 | 93* % | 0 | 0 | 68* % | 0* % | 0 | 52* % |  |  |  |  |  |  | 
CCC(C)Cn1c(-c2c(F)cccc2F)c(Cl)nc(-n2cccc2)c1=O (stereo not drawn) [compound 82] | 73* % | 0* % | 0* % | 0 | 0 | 0* % | 0 | 0 | 68* % | 0* % | 0 | 5* % |  |  |  |  |  |  | 
COc1cc(OC)c(-c2c(Cl)nc(-n3cccn3)c(=O)n2CC(C)C)c(OC)c1 [compound 86] |  |  |  | 23 | 0 |  | 0 | 4 |  |  | 0 |  | 0 | 0 | 0 | 0 | 0 | 0 | 0
CC(C)Cn1c(-c2c(F)cccc2C(F)(F)F)c(Cl)nc(-n2cccn2)c1=O [compound 87] |  |  |  | 18 | 0 |  | 0 | 95 |  |  | 0 |  | 100 | 100 | 99 | 100 | 100 | 100 | 74
CC(C)Cn1c(-c2ccc3c(c2)OCO3)c(Cl)nc(-n2cccn2)c1=O [compound 88] |  |  |  | 0 | 0 |  | 0 | 99 |  |  | 24 |  | 99 | 0 | 16 | 100 | 97 | 52 | 100
O=c1c(-n2cccn2)nc(Cl)c(-c2c(F)cccc2F)n1CC1CCCO1 (stereo not drawn) [compound 91] | 33* % | 0* % | 0* % | 0 | 0 | 92* % | 0 | 0 | 0* % | 0* % | 0 | 93* % |  |  |  |  |  |  | 
O=c1c(-n2cncn2)nc(Cl)c(-c2c(F)cccc2F)n1CC1CCCO1 (stereo not drawn) [compound 92] | 0* % | 0* % | 0* % | 0 | 0 | 0* % | 0 | 0 | 0* % | 0* % | 0 | 7* % |  |  |  |  |  |  | 
COCC(C)n1c(-c2c(F)cccc2F)c(Cl)nc(-n2cccn2)c1=O (stereo not drawn) [compound 93] | 96* % | 97* % | 70* % | 0 | 0 | 79* % | 0 | 0 | 98* % | 0* % | 60 | 83* % |  |  |  |  |  |  | 
COCC(C)n1c(-c2c(F)cccc2F)c(Cl)nc(-n2cncn2)c1=O (stereo not drawn) [compound 94] | 0* % | 0* % | 0* % | 0 | 0 | 0* % | 0 | 0 | 0* % | 0* % | 0 | 14* % |  |  |  |  |  |  | 
COCCn1c(-c2c(F)cccc2F)c(Cl)nc(-n2cncn2)c1=O [compound 96] | 0* % | 0* % | 0* % | 0 | 0 | 0* % | 0 | 0 | 0* % | 0* % | 0 | 0* % |  |  |  |  |  |  | 
CSCCn1c(-c2c(F)cccc2F)c(Cl)nc(-n2cccn2)c1=O [compound 97] | 0* % | 0* % | 0* % | 0 | 0 | 100* % | 64 | 0 | 0* % | 0* % | 0 | 24* % |  |  |  |  |  |  | 
CSCCn1c(-c2c(F)cccc2F)c(Cl)nc(-n2cncn2)c1=O [compound 98] | 0* % | 0* % | 0* % | 0 | 0 | 0* % | 0 | 0 | 0* % | 0* % | 0 | 26* % |  |  |  |  |  |  | 
O=c1c(-n2cccn2)nc(Cl)c(-c2c(F)cccc2F)n1Cc1ccccc1 [compound 104] |  |  |  | 0 | 0 |  | 9 | 0 |  |  | 0 |  | 100 | 100 | 95 | 100 | 100 | 100 | 100
